# Source: US11660338B2, “Particles comprising a shell with RNA” (BIONTECH SE, priority 2013, dated 2023)
# Tested on: Vγ9Vδ2 T cells
# Settings: 7-day co-culture, 5 μM ZA, 10 U/mL IL-2; mean of two donors
smiles,measurement,value
O=P(O)(O)C(O)(Cn1ccnc1)P(=O)(O)O [zoledronic acid],expansion rate of Vγ9δ2 T cells,about 15 fold
